The source of these data is patent publication US8124770B2, “Fluorescent cellular markers” (priority 2009, dated 2012).

Holding throughout (format): cell-based, human
The test system of assay [1] is DNA and mitochondria of A431 tumor cells. The experiment in a line: Intra cellular binding to organelles, wide-field fluorescence microscopy of A431 tumor cells. The conditions noted are these: fluorescence microscope (FIG. 11).
Assay [2] relates to Epidermoid carcinoma A431 cells. Briefly: Cell cytotoxicity (growth inhibition) of BQS on A431 cells, Trypan Blue Exclusion. As to conditions: 5 to 100 uM, read-out: IC50 (inhibition of 50% of the cell population). Here is the method:
Regarding the cytotoxicity, in order to determine the cell cytotoxicity of the BQS, duplicates cultures of 5×10^6 cells were seeded in 25 cm^2 flasks. The final volume on each plate was 9 ml of modified RPMI 1640 that contained the cell aliquot, media and BQS of present invention. Cells were then incubated for 4 hours to allow cells to adhere to the flask. Cells were cultured for 48 hours with BQS at concentration ranging from 5 to 100 uM. A negative control treated with ultra pure water (vehicle) was included in each experiment. […] At the end of the exposure period, media was removed and cultures rinsed twice with phosphate buffered saline (PBS) for removal of the compounds in solution. Cells detached with 5% trypsin enzyme, centrifuged, resuspended in fresh media and counted through a cell viability protocol, such as the Trypan Blue Exclusion analysis. Cell survival was calculated and plotted against time with the Microsoft Excel® software.

Assay [3] relates to caspases 3 and 7 in A431 cells. The experiment in a line: Caspases 3 and 7 activation, Magic Red assay, on A431 cells. The conditions noted are these: 48 hours of exposure, Cisplatin 3 uM positive control. How it is done: D. et al 2004; Blanc, C. et al 2000) making Cisplatin and Staurosporine appropriate positive controls for this assay. Cell culture media, such as RPMI 1640, modified with additional nutrients and additives such as Fetal Bovine serum and antibiotic has been added to improve the cell replication and prevent bacterial contamination was employed. […] The final volume on each plate was 9 ml of modified RPMI 1640 that contained the cell aliquot, media and drug. […] At the end of the treatment time cells were washed with PBS, detached with 5% trypsin enzyme and centrifuged. Cells were counted and aliquots were stained for an hour with cresyl violet (fluorochrome). […] Apoptotic cells (red) were distinguished from non apoptotic (non-fluorescent) using the negative and positive controls as reference.

The subject of assay [4] is A431 tumor cells. The experiment in a line: Auto-fluorescence on A431 tumor cells, inverted fluorescence microscopy. As to conditions: at IC50 concentration, monitored through 72 hour period, Olympus CKX41.
Description: Regarding the autofluorencense, Ellipticine was selected as a fluorescent positive control since it is a structural analog of ABQS's. The elipticine's IC50 dose in A431 was determine by treating A431 cell cultures (in duplicates) at concentrations ranging from 0 to 50 μM. The final volume on each plate was 9 mL of modified RPMI 1640 that contained the cell aliquot, media and drug. Cells were exposed to ABQS's and Ellipticine at their IC50 concentrations, incubated and monitored through a 72 hour period by inverted microscopy. An Olympus CKX41 inverted fluorescent microscope (50 w Hg lamp), with U filter; 40× objective. Photographs were obtained at 13-17 seconds of exposure using the Q Capture Software. Auto-fluorescent cells were distinguished from non-auto-fluorescent ones using the negative and positive controls as reference.
The mark [5] stands for this setting: Homo sapiens, A-431, 48 hours exposure.

Like-named read-outs stand apart in the source and are kept apart here.

With `Cc1ccc2sc3ccc4cc(N)c(Cl)cc4[n+]3c2c1.[Cl-]` [ABQ95, 3-amino-2-chloro-10-methylbenzothiazolo[3,2-a]quinolinium chloride], the “capacity to bind to cellular organelles” value in assay [1] was “bind to DNA and mitochondria”. The IC50 in assay [2] (setting [5]) was found to be 36 µM. In assay [3], the “Caspases 3 and 7 activation” value is 46±6%.
As for `CC[n+]1c2ccccc2n2c3ccc(N)cc3ccc21.[Cl-]` [ABQ38, 3-amino-7-ethylbenzimidazo[3,2-a]quinolinium chloride], the “auto fluorescence in cells” value in assay [4] was “auto fluorescence”. In addition, the “capacity to bind to cellular organelles” value in assay [1] is “bind to DNA and mitochondria”. Moreover, the concentration for half-maximal inhibition (IC50) in assay [2] (48 hours exposure) was found to be 32 µM. Besides, in assay [3], the “Caspases 3 and 7 activation” value is reported as 51±1%.
For the compound `N.N.[Cl][Pt][Cl]` [Cisplatin, reference compound], the “Caspases 3 and 7 activation” value in assay [3] is 51±13%.
As to `Cc1ccc2sc3ccc4cc([N+](=O)[O-])c(Cl)cc4[n+]3c2c1` [NBQ95, 2-Chloro-10-methyl-3-nitrobenzothiazolo[3,2-a]quinolinium chloride], in assay [2] (setting [5]), the IC50 came to 28 µM.
Take “7-Ethyl-3-nitrobenzimidazolo[3,2-a]quinolinium Chloride [NBQ38]”: the 50% inhibitory concentration (IC50) in assay [2] (48 hours exposure) worked out at 36 µM. The “Caspases 3 and 7 activation” value in assay [3] is reported as 22±7%.

By IC50 is commonly meant the midpoint of a concentration-inhibition curve.
